# Laboratory results taken from PubChem BioAssay (NCI).
#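 Briefly, cells in 96-well plates were exposed to five compound concentrations for 48 h, and endpoints were estimated by linear interpolation. GI50 is the concentration that inhibits growth by half. TGI marks complete inhibition of growth.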
# Columns and labels:
# Test in all cases: inhibition of tumour cell growth, NCI panel, 48 h
# HL-60(TB) leukemia = tested on: HL-60(TB) leukemia
# K-562 leukemia = tested on: K-562 leukemia
# UACC-257 melanoma = tested on: UACC-257 melanoma
# OVCAR-3 ovarian = tested on: OVCAR-3 ovarian
# KM12 colon = tested on: KM12 colon
# OVCAR-5 ovarian = tested on: OVCAR-5 ovarian
# SF-539 CNS = tested on: SF-539 CNS
# OVCAR-8 ovarian = tested on: OVCAR-8 ovarian
# NCI/ADR-RES ovarian = tested on: NCI/ADR-RES ovarian
# UACC-62 melanoma = tested on: UACC-62 melanoma
# HT29 colon = tested on: HT29 colon
# TK-10 renal = tested on: TK-10 renal
# LOX IMVI melanoma = tested on: LOX IMVI melanoma
# HOP-62 NSCLC = tested on: HOP-62 NSCLC
# MDA-MB-435 = tested on: MDA-MB-435
# SN12C renal = tested on: SN12C renal
# BT-549 breast = tested on: BT-549 breast
# HCT-15 colon = tested on: HCT-15 colon
# HS 578T breast = tested on: HS 578T breast
# SK-OV-3 ovarian = tested on: SK-OV-3 ovarian
# SK-MEL-28 melanoma = tested on: SK-MEL-28 melanoma
# SF-295 CNS = tested on: SF-295 CNS
# HCT-116 colon = tested on: HCT-116 colon
# SR leukemia = tested on: SR leukemia
# EKVX NSCLC = tested on: EKVX NSCLC
# RXF 393 renal = tested on: RXF 393 renal
# SW-620 colon = tested on: SW-620 colon
# MCF7 breast = tested on: MCF7 breast
# A549 NSCLC = tested on: A549 NSCLC
# MDA-MB-231 breast = tested on: MDA-MB-231 breast
# NCI-H522 lung = tested on: NCI-H522 lung
# DU-145 prostate = tested on: DU-145 prostate
# CAKI-1 renal = tested on: CAKI-1 renal
# NCI-H460 lung = tested on: NCI-H460 lung
# SF-268 CNS = tested on: SF-268 CNS
# 786-0 renal = tested on: 786-0 renal
# SK-MEL-5 melanoma = tested on: SK-MEL-5 melanoma
# M14 melanoma = tested on: M14 melanoma
# T-47D breast = tested on: T-47D breast
# NCI-H23 lung = tested on: NCI-H23 lung
# SK-MEL-2 melanoma = tested on: SK-MEL-2 melanoma
# SNB-19 CNS = tested on: SNB-19 CNS
# U251 CNS = tested on: U251 CNS
# RPMI-8226 leukemia = tested on: RPMI-8226 leukemia
# A498 renal = tested on: A498 renal
# OVCAR-4 ovarian = tested on: OVCAR-4 ovarian
# NCI-H226 lung = tested on: NCI-H226 lung
# CCRF-CEM leukemia = tested on: CCRF-CEM leukemia
# COLO 205 colon = tested on: COLO 205 colon
# SNB-75 CNS = tested on: SNB-75 CNS
# MALME-3M melanoma = tested on: MALME-3M melanoma
# IGROV1 ovarian = tested on: IGROV1 ovarian
# MOLT-4 leukemia = tested on: MOLT-4 leukemia
# HCC-2998 colon = tested on: HCC-2998 colon
# UO-31 renal = tested on: UO-31 renal
# ACHN renal = tested on: ACHN renal
# PC-3 prostate = tested on: PC-3 prostate
# HOP-92 NSCLC = tested on: HOP-92 NSCLC
smiles,measurement,setting,value
CC(=O)OC1Oc2ccccc2-c2oc(=O)c(-c3ccc(F)cc3)cc21 (stereo unspecified),GI50,HL-60(TB) leukemia,24.9 µM
same,TGI,HL-60(TB) leukemia,> 100 µM
same,GI50,K-562 leukemia,17.1 µM
same,TGI,K-562 leukemia,> 100 µM
same,GI50,UACC-257 melanoma,35.5 µM
same,TGI,UACC-257 melanoma,> 100 µM
same,GI50,OVCAR-3 ovarian,23.2 µM
same,TGI,OVCAR-3 ovarian,71.7 µM
same,GI50,KM12 colon,12.2 µM
same,TGI,KM12 colon,43 µM
same,GI50,OVCAR-5 ovarian,66.5 µM
same,TGI,OVCAR-5 ovarian,> 100 µM
same,GI50,SF-539 CNS,24.6 µM
same,TGI,SF-539 CNS,74.6 µM
same,GI50,OVCAR-8 ovarian,36.3 µM
same,TGI,OVCAR-8 ovarian,> 100 µM
same,GI50,NCI/ADR-RES ovarian,60 µM
same,TGI,NCI/ADR-RES ovarian,> 100 µM
same,GI50,UACC-62 melanoma,10.8 µM
same,TGI,UACC-62 melanoma,33.6 µM
same,GI50,HT29 colon,21.6 µM
same,TGI,HT29 colon,> 100 µM
same,GI50,TK-10 renal,26.7 µM
same,TGI,TK-10 renal,83.8 µM
same,GI50,LOX IMVI melanoma,16.6 µM
same,TGI,LOX IMVI melanoma,73.2 µM
same,GI50,HOP-62 NSCLC,8.79 µM
same,TGI,HOP-62 NSCLC,40.2 µM
same,GI50,MDA-MB-435,4.33 µM
same,TGI,MDA-MB-435,40.3 µM
same,GI50,SN12C renal,35.1 µM
same,TGI,SN12C renal,> 100 µM
same,GI50,BT-549 breast,23.8 µM
same,TGI,BT-549 breast,69.1 µM
same,GI50,HCT-15 colon,20.9 µM
same,TGI,HCT-15 colon,> 100 µM
same,GI50,HS 578T breast,10.4 µM
same,TGI,HS 578T breast,74.7 µM
same,GI50,SK-OV-3 ovarian,35 µM
same,TGI,SK-OV-3 ovarian,> 100 µM
same,GI50,SK-MEL-28 melanoma,32.6 µM
same,TGI,SK-MEL-28 melanoma,> 100 µM
same,GI50,SF-295 CNS,23.3 µM
same,TGI,SF-295 CNS,> 100 µM
same,GI50,HCT-116 colon,31.5 µM
same,TGI,HCT-116 colon,> 100 µM
same,GI50,SR leukemia,2.86 µM
same,TGI,SR leukemia,9.08 µM
same,GI50,EKVX NSCLC,9.46 µM
same,TGI,EKVX NSCLC,83.3 µM
same,GI50,RXF 393 renal,26.8 µM
same,TGI,RXF 393 renal,99.7 µM
same,GI50,SW-620 colon,19 µM
same,TGI,SW-620 colon,> 100 µM
same,GI50,MCF7 breast,6.01 µM
same,TGI,MCF7 breast,40 µM
same,GI50,A549 NSCLC,38.8 µM
same,TGI,A549 NSCLC,> 100 µM
same,GI50,MDA-MB-231 breast,33.9 µM
same,TGI,MDA-MB-231 breast,> 100 µM
same,GI50,NCI-H522 lung,20.2 µM
same,TGI,NCI-H522 lung,78.3 µM
same,GI50,DU-145 prostate,29 µM
same,TGI,DU-145 prostate,> 100 µM
same,GI50,CAKI-1 renal,30.9 µM
same,TGI,CAKI-1 renal,> 100 µM
same,GI50,NCI-H460 lung,25.2 µM
same,TGI,NCI-H460 lung,> 100 µM
same,GI50,SF-268 CNS,29.6 µM
same,TGI,SF-268 CNS,> 100 µM
same,GI50,786-0 renal,17.7 µM
same,TGI,786-0 renal,77.3 µM
same,GI50,SK-MEL-5 melanoma,14.9 µM
same,TGI,SK-MEL-5 melanoma,31 µM
same,GI50,M14 melanoma,25.3 µM
same,TGI,M14 melanoma,95.8 µM
same,GI50,T-47D breast,22.5 µM
same,TGI,T-47D breast,93.3 µM
same,GI50,NCI-H23 lung,40.7 µM
same,TGI,NCI-H23 lung,> 100 µM
same,GI50,SK-MEL-2 melanoma,39.5 µM
same,TGI,SK-MEL-2 melanoma,> 100 µM
same,GI50,SNB-19 CNS,30.6 µM
same,TGI,SNB-19 CNS,> 100 µM
same,GI50,U251 CNS,16.8 µM
same,TGI,U251 CNS,> 100 µM
same,GI50,RPMI-8226 leukemia,24.6 µM
same,TGI,RPMI-8226 leukemia,60.3 µM
same,GI50,A498 renal,28.3 µM
same,TGI,A498 renal,71.9 µM
same,GI50,OVCAR-4 ovarian,28.2 µM
same,TGI,OVCAR-4 ovarian,> 100 µM
same,GI50,NCI-H226 lung,29.7 µM
same,TGI,NCI-H226 lung,78.1 µM
same,GI50,CCRF-CEM leukemia,23.4 µM
same,TGI,CCRF-CEM leukemia,55.2 µM
same,GI50,COLO 205 colon,36.3 µM
same,TGI,COLO 205 colon,> 100 µM
same,GI50,SNB-75 CNS,5.59 µM
same,TGI,SNB-75 CNS,41.7 µM
same,GI50,MALME-3M melanoma,21.9 µM
same,TGI,MALME-3M melanoma,70.7 µM
same,GI50,IGROV1 ovarian,33.5 µM
same,TGI,IGROV1 ovarian,> 100 µM
same,GI50,MOLT-4 leukemia,14 µM
same,TGI,MOLT-4 leukemia,31.1 µM
same,GI50,HCC-2998 colon,24.8 µM
same,TGI,HCC-2998 colon,> 100 µM
same,GI50,UO-31 renal,32.8 µM
same,TGI,UO-31 renal,> 100 µM
same,GI50,ACHN renal,31.8 µM
same,TGI,ACHN renal,> 100 µM
same,GI50,PC-3 prostate,32.7 µM
same,TGI,PC-3 prostate,> 100 µM
same,GI50,HOP-92 NSCLC,29.6 µM
same,TGI,HOP-92 NSCLC,96.9 µM
